The source made the active and inactive calls. No cut-off for these calls is given here.
Assays:
[1] = system: Rattus norvegicus; test: Analgesic activity in ip dosed rat capsaicn induced mechanical allodynia model; type: functional
[2] = target: Adenosine receptor A3 (Homo sapiens, UniProt P0DMS8); test: Displacement of [125I]AB-MECA from adenosine A3 receptor
[3] = target: P2X purinoceptor 2 (Homo sapiens, UniProt Q9UBL9); test: Inhibition of P2X2 receptor
[4] = target: Delta-type opioid receptor (Homo sapiens, UniProt P41143); test: Displacement of [3H]DADLE from opioid delta receptor
[5] = system: Rattus norvegicus; test: Analgesic activity in ip dosed rat complete Freund's adjuvant-induced mechanical hyperalgesia model assessed as paw withdrawal latency after 4 days; type: functional; details: 96 h
[6] = system: Rattus norvegicus; test: Analgesic activity in rat skin incision model of post-operative pain at 100 mg/kg, ip after 2 hrs; type: functional; details: route intraperitoneal
[7] = target: Potassium voltage-gated channel subfamily KQT member 2 (Homo sapiens, UniProt O43526); test: Inhibition of KCNQ2 channel
[8] = Tmax in rat at 10 mg/kg, ip; type: ADME, organism-based; design: dose 10 mg/kg, route intraperitoneal; details: in vivo
[9] = target: C-C chemokine receptor type 1 (Homo sapiens, UniProt P32246); test: Displacement of [125I]MIP1-alpha from CCR1 receptor
[10] = system: Rattus norvegicus; test: Analgesic activity in rat complete Freund's adjuvant-induced thermal hyperalgesia model assessed as paw withdrawal latency at 100 mg/kg, ip after 2 days; type: functional; details: route intraperitoneal
[11] = target: Sodium channel protein type 3 subunit alpha (Homo sapiens, UniProt Q9NY46); test: Inhibition of human Nav1.3 channel expressed in HEK293 cells at -60 mV by patch clamp method; type: cell-based
[12] = target: 5-hydroxytryptamine receptor 1B (Homo sapiens, UniProt P28222); test: Displacement of [3H]CYP from 5HT1B receptor
[13] = target: T1, Sodium channel protein type 5 subunit alpha (Homo sapiens, UniProt Q14524); test: Inhibition of human Nav1.5 channel expressed in HEK293 cells at -90 mV by patch clamp method; type: cell-based
[14] = target: T2, Sodium channel protein type 10 subunit alpha (Homo sapiens, UniProt Q9Y5Y9); test: Inhibition of human Nav1.8 channel expressed in HEK293 cells at -100 mV by patch clamp method; type: cell-based
[15] = target: D(2) dopamine receptor (Homo sapiens, UniProt P14416); test: Displacement of [3H]spiperone from dopamine D2 receptor
[16] = system: Rattus norvegicus; test: Analgesic activity in ip dosed rat vincristine-induced mechanical allodynic neuropathic pain; type: functional
[17] = target: P2Y purinoceptor 2 (Homo sapiens, UniProt P41231); test: Displacement of [35S]dATP-alpha-S from P2Y receptor
[18] = system: Rattus norvegicus; test: Analgesic activity in rat acute mechanical stimulation nociception model assessed as paw withdrawal latency at 100 mg/kg, ip; type: functional; details: route intraperitoneal
[19] = target: T2, Sodium channel protein type 10 subunit alpha; test: Inhibition of human Nav1.8 channel expressed in HEK293 cells at -40 mV by patch clamp method; type: cell-based
[20] = target: Cannabinoid receptor 2 (Homo sapiens, UniProt P34972); test: Displacement of [3H]Win 55212-2 from cannabinoid CB2 receptor
[21] = target: Sodium channel protein type 9 subunit alpha (Homo sapiens, UniProt Q15858); test: Inhibition of human Nav1.7 channel expressed in HEK293 cells at -60 mV by patch clamp method; type: cell-based
[22] = system: Rattus norvegicus; test: Analgesic activity in rat complete Freund's adjuvant-induced mechanical hyperalgesia model assessed as paw withdrawal latency at 100 mg/kg, ip after 2 days; type: functional; details: route intraperitoneal
[23] = target: D(4) dopamine receptor (Homo sapiens, UniProt P21917); test: Displacement of [3H]spiperone from dopamine D4.4 receptor
[24] = system: Rattus norvegicus; test: Analgesic activity in ip dosed rat cyclophosphamide induced cyctitis model at 100 mg/kg, ip; type: functional; details: route intraperitoneal
[25] = target: Sodium channel protein type 10 subunit alpha (Rattus norvegicus, UniProt Q62968); test: Inhibition of recombinant rat Nav1.8 sodium channel assessed as blockade of TTXR current by patch clamp method
[26] = system: DRG neuron; test: Suppression of evoked action potential firing in rat DRG neurons at 0.3 uM; type: functional, cell-based
[27] = target: Nociceptin receptor (Homo sapiens, UniProt P41146); test: Displacement of [3H]nociceptin from ORL1 receptor
[28] = system: Rattus norvegicus; test: Analgesic activity in rat colonic distension model at 100 mg/kg, ip; type: functional; details: route intraperitoneal
[29] = system: Rattus norvegicus; test: Analgesic activity in ip dosed rat acute mechanical stimulation nociception model assessed as paw withdrawal latency; type: functional
[30] = system: Rattus norvegicus; test: Analgesic activity in ip dosed rat acute thermal stimulation nociception model assessed as paw withdrawal latency; type: functional
[31] = target: Beta-2 adrenergic receptor (Homo sapiens, UniProt P07550); test: Displacement of [3H](-)CGP-12177 from adrenergic beta2 receptor
[32] = system: Rattus norvegicus; test: Motor effect in rat assessed as locomotory activity at 300 mg/kg, ip; type: functional; details: route intraperitoneal
[33] = target: Sigma non-opioid intracellular receptor 1 (Homo sapiens, UniProt Q99720); test: Displacement of [3H]pentazocine from sigma1 receptor
[34] = system: Rattus norvegicus; test: Analgesic activity in rat capsaicn induced mechanical allodynia model at 300 mg/kg, ip; type: functional; details: route intraperitoneal
[35] = target: D(1A) dopamine receptor (Homo sapiens, UniProt P21728); test: Displacement of [3H]SCH-23390 from dopamine D1 receptor
[36] = target: Muscarinic acetylcholine receptor M5 (Homo sapiens, UniProt P08912); test: Displacement of [3H]4DAMP from muscarinic M5 receptor
[37] = system: Mus musculus; test: Analgesic activity in mouse visceral pain model assessed as acetic acid induced writhing at 100 mg/kg, ip; type: functional; details: route intraperitoneal
[38] = target: Muscarinic acetylcholine receptor M2 (Homo sapiens, UniProt P08172); test: Displacement of [3H]AF-DX384 from muscarinic M2 receptor
[39] = system: Rattus norvegicus; test: Motor effect in ip dosed rat assessed as latency to fall by edge balance test; type: functional
[40] = Protein binding in rat plasma; type: ADME, cell-free; details: read-out: PPB (converted)
[41] = Displacement of [3H]GABA from GABA receptor
[42] = system: Rattus norvegicus; test: Analgesic activity in ip dosed rat chronic constriction injury model of mechanical allodynia; type: functional
[43] = target: D(1B) dopamine receptor (Homo sapiens, UniProt P21918); test: Displacement of [3H]SCH23390 from dopamine D5 receptor
[44] = system: Rattus norvegicus; test: Analgesic activity in rat acute thermal stimulation nociception model assessed as paw withdrawal latency at 100 mg/kg, ip; type: functional; details: route intraperitoneal
[45] = system: Rattus norvegicus; test: Analgesic activity in rat carrageenan-induced […] pain model at 100 mg/kg, ip; type: functional; details: route intraperitoneal
[46] = Displacement of [125I]TNFalpha from TNFalpha receptor
[47] = system: Rattus norvegicus; test: Analgesic activity in ip dosed rat skin incision model of post-operative pain after 24 hrs; type: functional
[48] = target: Alpha-2A adrenergic receptor (Homo sapiens, UniProt P08913); test: Displacement of [3H]RX821002 from adrenergic alpha-2 receptor
[49] = target: T1, Sodium channel protein type 5 subunit alpha; test: Inhibition of human Nav1.5 channel expressed in HEK293 cells at -150 mV by patch clamp method; type: cell-based
[50] = system: Rattus norvegicus; test: Analgesic activity in ip dosed rat cyclophosphamide induced cyctitis model; type: functional
[51] = target: Potassium voltage-gated channel subfamily KQT member 3 (Homo sapiens, UniProt O43525); test: Inhibition of KCNQ3 channel

T2 sequence (Q9Y5Y9 whole entry): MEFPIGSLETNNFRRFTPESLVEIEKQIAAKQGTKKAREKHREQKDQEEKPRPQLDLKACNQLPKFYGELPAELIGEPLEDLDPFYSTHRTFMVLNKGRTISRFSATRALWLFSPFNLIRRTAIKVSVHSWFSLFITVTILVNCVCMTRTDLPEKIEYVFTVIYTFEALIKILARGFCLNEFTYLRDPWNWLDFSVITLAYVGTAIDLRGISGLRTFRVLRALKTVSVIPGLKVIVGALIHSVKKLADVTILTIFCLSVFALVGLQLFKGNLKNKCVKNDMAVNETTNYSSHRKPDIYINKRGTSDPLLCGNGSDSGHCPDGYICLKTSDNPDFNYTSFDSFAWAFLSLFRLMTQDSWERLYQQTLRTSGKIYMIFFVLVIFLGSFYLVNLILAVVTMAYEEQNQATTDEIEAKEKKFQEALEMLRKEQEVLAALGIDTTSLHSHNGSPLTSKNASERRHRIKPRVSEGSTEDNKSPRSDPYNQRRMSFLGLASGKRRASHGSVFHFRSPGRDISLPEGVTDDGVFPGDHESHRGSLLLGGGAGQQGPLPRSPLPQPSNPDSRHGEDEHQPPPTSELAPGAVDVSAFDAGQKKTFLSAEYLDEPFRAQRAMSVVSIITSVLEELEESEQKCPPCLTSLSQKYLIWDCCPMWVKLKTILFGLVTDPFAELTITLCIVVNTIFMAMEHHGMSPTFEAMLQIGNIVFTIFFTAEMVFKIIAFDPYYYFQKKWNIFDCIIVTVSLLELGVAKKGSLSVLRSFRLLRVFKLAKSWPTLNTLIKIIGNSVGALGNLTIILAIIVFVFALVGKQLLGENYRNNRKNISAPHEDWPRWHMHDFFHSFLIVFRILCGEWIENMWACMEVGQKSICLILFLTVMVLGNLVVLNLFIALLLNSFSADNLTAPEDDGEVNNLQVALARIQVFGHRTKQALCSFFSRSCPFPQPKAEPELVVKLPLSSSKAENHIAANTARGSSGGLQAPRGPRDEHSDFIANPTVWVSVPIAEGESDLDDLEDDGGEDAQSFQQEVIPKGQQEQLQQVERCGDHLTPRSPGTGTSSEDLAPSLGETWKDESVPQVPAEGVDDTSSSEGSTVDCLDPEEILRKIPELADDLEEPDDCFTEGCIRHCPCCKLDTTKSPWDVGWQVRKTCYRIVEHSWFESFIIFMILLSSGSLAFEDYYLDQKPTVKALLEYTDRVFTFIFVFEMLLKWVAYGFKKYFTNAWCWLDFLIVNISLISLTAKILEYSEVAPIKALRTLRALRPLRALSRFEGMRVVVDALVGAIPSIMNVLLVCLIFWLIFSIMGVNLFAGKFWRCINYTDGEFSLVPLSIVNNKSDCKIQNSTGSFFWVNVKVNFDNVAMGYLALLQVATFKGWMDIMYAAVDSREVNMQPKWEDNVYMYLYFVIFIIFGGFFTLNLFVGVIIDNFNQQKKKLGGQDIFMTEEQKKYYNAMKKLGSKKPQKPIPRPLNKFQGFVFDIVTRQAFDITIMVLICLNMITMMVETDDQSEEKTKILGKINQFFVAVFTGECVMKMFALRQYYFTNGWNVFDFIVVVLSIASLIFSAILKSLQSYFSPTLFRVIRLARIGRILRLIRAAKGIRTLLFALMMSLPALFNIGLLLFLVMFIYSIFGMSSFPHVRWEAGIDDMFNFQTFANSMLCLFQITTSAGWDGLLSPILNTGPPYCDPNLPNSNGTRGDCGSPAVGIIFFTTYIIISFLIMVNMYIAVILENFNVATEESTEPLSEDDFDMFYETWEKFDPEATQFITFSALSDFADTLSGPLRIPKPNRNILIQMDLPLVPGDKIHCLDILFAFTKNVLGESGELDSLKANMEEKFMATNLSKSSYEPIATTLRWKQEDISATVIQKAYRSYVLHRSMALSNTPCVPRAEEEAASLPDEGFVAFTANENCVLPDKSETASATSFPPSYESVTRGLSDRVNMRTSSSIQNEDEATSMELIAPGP
T1 sequence (Q14524 whole entry): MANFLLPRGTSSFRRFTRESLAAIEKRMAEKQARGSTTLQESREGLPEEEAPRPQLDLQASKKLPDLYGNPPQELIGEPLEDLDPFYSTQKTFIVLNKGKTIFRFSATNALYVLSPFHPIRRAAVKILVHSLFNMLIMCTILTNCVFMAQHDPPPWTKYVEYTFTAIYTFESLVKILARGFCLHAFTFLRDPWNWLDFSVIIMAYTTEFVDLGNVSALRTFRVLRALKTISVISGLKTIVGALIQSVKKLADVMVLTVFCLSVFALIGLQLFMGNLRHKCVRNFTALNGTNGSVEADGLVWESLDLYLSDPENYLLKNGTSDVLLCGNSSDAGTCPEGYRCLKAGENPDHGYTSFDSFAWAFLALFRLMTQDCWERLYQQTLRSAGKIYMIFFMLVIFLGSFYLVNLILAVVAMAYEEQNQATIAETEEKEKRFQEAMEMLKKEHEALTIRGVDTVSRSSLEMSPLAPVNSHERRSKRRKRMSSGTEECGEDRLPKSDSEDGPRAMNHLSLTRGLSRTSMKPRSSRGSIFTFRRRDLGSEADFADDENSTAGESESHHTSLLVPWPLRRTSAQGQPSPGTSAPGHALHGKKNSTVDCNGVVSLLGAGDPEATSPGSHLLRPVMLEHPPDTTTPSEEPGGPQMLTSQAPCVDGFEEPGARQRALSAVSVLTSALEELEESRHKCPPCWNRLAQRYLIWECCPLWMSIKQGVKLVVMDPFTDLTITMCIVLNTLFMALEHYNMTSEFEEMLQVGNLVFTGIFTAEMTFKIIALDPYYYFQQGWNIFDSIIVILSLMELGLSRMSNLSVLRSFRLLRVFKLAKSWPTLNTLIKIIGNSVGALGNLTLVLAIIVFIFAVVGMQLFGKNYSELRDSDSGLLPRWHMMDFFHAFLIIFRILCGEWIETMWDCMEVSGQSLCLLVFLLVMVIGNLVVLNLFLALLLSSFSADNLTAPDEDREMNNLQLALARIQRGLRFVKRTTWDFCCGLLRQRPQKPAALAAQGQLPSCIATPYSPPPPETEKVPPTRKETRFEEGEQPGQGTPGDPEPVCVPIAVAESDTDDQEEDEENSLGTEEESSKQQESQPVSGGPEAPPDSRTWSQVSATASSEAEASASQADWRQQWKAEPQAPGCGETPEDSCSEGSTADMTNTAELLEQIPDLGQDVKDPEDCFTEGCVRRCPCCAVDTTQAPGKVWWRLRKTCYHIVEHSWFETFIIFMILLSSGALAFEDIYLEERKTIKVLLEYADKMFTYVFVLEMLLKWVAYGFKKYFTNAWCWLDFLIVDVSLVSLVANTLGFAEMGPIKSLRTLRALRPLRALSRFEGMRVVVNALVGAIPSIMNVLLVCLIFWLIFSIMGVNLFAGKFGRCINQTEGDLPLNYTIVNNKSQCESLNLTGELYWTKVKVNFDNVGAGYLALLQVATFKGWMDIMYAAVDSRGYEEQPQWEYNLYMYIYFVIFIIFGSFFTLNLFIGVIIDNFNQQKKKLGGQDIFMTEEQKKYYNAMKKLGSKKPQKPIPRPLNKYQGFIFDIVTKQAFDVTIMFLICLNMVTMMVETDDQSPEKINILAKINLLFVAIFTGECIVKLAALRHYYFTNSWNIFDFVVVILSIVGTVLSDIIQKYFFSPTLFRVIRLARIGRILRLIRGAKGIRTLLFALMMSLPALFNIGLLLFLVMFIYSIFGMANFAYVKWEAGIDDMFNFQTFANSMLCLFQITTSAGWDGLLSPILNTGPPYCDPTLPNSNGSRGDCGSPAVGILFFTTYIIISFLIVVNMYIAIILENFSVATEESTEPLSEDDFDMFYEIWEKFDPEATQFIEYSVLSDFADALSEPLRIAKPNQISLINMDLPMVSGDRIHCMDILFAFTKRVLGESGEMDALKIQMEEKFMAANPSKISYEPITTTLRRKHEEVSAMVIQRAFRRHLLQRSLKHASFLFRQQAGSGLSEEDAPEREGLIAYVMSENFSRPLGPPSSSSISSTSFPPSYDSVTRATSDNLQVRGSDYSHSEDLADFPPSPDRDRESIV
Sequence of Cannabinoid receptor 2 (P34972 whole entry): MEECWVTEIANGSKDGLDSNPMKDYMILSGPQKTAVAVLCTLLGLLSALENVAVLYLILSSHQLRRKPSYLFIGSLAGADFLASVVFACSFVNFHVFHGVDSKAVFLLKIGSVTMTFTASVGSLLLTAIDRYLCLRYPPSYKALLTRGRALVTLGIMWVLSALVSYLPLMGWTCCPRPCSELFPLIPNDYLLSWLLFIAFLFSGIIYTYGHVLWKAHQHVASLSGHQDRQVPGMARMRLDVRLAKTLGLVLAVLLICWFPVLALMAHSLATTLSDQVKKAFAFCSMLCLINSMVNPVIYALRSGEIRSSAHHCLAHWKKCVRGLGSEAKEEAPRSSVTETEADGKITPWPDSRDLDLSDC
Sequence of 5-hydroxytryptamine receptor 1B (P28222 whole entry): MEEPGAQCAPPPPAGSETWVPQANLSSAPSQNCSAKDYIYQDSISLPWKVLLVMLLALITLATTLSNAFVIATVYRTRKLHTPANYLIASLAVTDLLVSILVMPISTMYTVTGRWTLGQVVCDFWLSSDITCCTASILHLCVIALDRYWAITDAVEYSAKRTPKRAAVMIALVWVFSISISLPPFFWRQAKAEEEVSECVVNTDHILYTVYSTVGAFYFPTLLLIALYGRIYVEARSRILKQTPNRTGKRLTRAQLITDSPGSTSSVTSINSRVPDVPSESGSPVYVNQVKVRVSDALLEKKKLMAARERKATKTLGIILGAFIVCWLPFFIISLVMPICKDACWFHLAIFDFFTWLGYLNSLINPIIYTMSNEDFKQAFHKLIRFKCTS
Sequence of P2Y purinoceptor 2 (P41231 whole entry): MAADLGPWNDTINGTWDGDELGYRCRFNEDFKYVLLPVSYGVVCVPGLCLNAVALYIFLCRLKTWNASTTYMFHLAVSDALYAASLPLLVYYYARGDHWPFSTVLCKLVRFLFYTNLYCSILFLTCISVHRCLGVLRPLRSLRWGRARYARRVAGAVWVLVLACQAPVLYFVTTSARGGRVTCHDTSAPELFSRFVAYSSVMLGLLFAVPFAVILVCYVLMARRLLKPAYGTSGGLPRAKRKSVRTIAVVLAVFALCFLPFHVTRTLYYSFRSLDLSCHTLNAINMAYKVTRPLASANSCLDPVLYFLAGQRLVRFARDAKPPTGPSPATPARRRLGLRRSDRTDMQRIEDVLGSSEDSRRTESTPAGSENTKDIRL

Molecule COc1cc(NC(=O)c2ccc(-c3ccc(Cl)cc3)o2)cc(OC)c1 has an ED50 [1] of 100 mg/kg, an IC50 [2] of 12 µM and an IC50 [3] of over 10 µM. For the same molecule, the IC50 [4] was over 10 µM, the ED50 [5] was over 100 mg/kg and the Activity [6] was 14%. It also gave an IC50 [7] of over 10 µM, a Tmax [8] of 1.6 h and an IC50 [9] of over 10 µM. For the same molecule, the Activity [10] was 64%, the IC50 [11] was 2.45 µM and the IC50 [12] was over 10 µM. The IC50 [13] was 7.34 µM, the IC50 [14] was 0.079 µM and the IC50 [15] was over 10 µM. For the same molecule, the ED50 [16] was over 100 mg/kg, the IC50 [17] was over 10 µM and the Activity [18] was 70%. For the same molecule, the IC50 [19] was 0.008 µM, the IC50 [20] was over 10 µM and the IC50 [21] was 6.74 µM. The Activity [22] was 34%, the IC50 [23] was over 10 µM and the Activity [24] was 0%. For the same molecule, the IC50 [25] was 0.045 µM, the Activity [26] was “Active” and the IC50 [27] was over 10 µM. The Activity [28] was 25%, the ED50 [29] was 65 mg/kg and the ED50 [30] was over 100 mg/kg. The IC50 [31] was over 10 µM, the Activity [32] was 12% and the IC50 [33] was over 10 µM. It also gave an Activity [34] of 46%, an IC50 [35] of 7 µM and an IC50 [36] of over 10 µM. The Activity [37] was 34%, the IC50 [38] was over 10 µM and the ED50 [39] was over 300 mg/kg. The fraction unbound [40] was 0.013, the IC50 [41] was over 10 µM and the ED50 [42] was 85 mg/kg. It also gave an IC50 [43] of over 10 µM, an Activity [44] of 0% and an Activity [45] of 54%. The IC50 [46] was over 10 µM, the ED50 [47] was over 100 mg/kg and the IC50 [48] was over 10 µM. It also gave an IC50 [49] of 32.8 µM, an ED50 [50] of over 100 mg/kg and an IC50 [51] of over 10 µM.
